Source: patent publication US20070129434A1, “Analgesics and methods of use” (priority 2002, published 2007)
Several values for one entry are separate records, joined by “and”; a condition that tells them apart may be missing. Equal values may be shown once. Where a name gives a salt, the structure may show the parent alone.

What was measured:
rat α3β4 nAChRs = biological target: T1, rat α3β4 nAChRs (Rattus norvegicus, UniProt P04757+P12392); experiment: cell-based; format: cell-based; details: for IC50: inhibition of 86Rb+ efflux stimulated by 100 μM nicotine, KXα3β4R2 cells, mean ± standard error; for type of receptor blockade: nicotine concentration-response curves in presence of antagonist
T1 construct: expressed in transfected cells
T1 sequence (P04757 26-499): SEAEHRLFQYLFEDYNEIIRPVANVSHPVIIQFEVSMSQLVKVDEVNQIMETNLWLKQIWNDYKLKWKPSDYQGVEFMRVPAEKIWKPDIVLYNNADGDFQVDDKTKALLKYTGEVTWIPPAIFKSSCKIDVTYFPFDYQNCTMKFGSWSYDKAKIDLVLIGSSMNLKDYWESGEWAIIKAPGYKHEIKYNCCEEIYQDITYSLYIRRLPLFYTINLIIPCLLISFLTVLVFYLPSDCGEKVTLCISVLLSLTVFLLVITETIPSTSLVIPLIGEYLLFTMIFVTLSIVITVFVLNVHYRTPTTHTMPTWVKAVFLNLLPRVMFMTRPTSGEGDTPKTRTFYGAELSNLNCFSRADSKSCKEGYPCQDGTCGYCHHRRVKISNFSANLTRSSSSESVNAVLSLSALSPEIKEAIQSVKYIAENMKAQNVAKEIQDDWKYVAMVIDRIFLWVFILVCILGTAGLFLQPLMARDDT
T1 sequence (P12392 21-495): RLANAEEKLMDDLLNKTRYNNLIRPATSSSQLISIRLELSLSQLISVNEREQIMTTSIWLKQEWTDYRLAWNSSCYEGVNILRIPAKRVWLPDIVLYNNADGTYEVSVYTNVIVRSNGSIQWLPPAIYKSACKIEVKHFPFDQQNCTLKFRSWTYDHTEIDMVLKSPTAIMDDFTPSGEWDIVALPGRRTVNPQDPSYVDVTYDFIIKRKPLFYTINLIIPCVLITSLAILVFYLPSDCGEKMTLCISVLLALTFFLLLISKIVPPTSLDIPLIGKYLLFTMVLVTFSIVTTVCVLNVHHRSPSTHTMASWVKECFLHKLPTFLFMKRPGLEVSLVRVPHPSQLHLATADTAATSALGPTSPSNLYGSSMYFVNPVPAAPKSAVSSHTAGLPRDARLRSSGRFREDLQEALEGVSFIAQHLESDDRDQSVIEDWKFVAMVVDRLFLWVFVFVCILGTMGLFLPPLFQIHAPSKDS
Experimental: Cell Culture. The cell line KXα3β4R2 was established previously by stably cotransfecting human embryonic kidney-293 cells with the rat α3 and β4 nAChR subunits genes (Xiao et al., 1998). Cells were maintained in minimum essential medium supplemented with 10% fetal bovine serum, 100 units/ml penicillin G, […], and 0.7 mg/ml of geneticin (G418) at 37° C. with 5% CO2 in a humidified incubator.
^86Rb^+ Efflux Assay. Function of nAChRs expressed in the transfected cells was measured using a ^86Rb^+ efflux assay as described previously (Xiao et al., 1998). In brief, cells in the selection growth medium were plated into 24-well plates coated with poly(D-lysine). The plated cells were grown at 37° C. for 18 to 24 h to reach 70 to 95% confluence. The cells were then incubated in growth medium (0.5 ml/well) containing ^86Rb^+ (2 μCi/ml) for 4 h at 37° C. The loading mixture was then aspirated and the cells were washed three times with buffer (15 mM HEPES, 140 mM NaCl, 2 mM KCl, 1 mM MgSO4, 1.8 mM CaCl, 11 mM glucose, pH 7.4; 1 ml/well) for 30 s, 5 min, and 30 s, respectively. One milliliter of buffer, with or without compounds to be tested, was then added to each well. After incubation for 2 min, the assay buffer was collected for measurements of ^86Rb^+ released from the cells. Cells were then lysed by adding 1 ml of 100 mM NaOH to each well, and the lysate was collected for determination of the amount of ^86Rb^+ that was in the cells at the end of the efflux assay. Radioactivity of assay samples and lysates was measured by liquid scintillation counting. Total loading (cpm) was calculated as the sum of the assay sample and the lysate of each well. The amount of ^86Rb^+ efflux was expressed as a percentage of ^86Rb^+ loaded.
Experiments with antagonists were done in two different ways. […] EC50, Emax, and IC50, values were determined by nonlinear least-squares regression analyses (GraphPad, San Diego, Calif.).

[1] = test system: morphine, methamphetamine, and nicotine self-administration; details: rats, 5-30 mg/kg; cited from earlier work
[2] = test system: glutamate stimulated catecholamine release; format: cell-based, rat; details: 1 mM glutamate for 2 min, hippocampus and striatum slices; for block of glutamate stimulated catecholamine release: 10 μM
Experimental: The hippocampus and striatum are both important and well-studied anatomical areas of the brain. The hippocampus is associated with learning and memory functions while the striatus is linked to motor function. Slices were loaded with [^3H]norepinephrine or [^3H]dopamine and then exposed to 1 mM glutamate for 2 min in the absence or presence of MK-801, d-methadone or (+)-EDDP. The baseline release was measured in the absence of glutamate.

Swiss-Webster mice = experiment: Warm-water tail-withdrawal nociception assay; format: in vivo; details: either enantiomer, 40 μg intracerebrally
Experimental: To confirm their suspicions that the compounds of the present invention, do in fact have an analgesic effect, the inventors experimented with mice. […] Each enantiomer of EDDP, in 40 μg doses, was administered intracerebrally to the mice. The animals were monitored for baseline sensitivity using the warm-water tail-withdrawal nociception assay and the latency to tail withdrawal was monitored as a measurement of analgesia. […] Thus, it is clear that the d-methadone metabolite EDDP has significant analgesic effect. Likewise, the metabolite EMDP and the structural analogs of both EDDP and EMDP are expected to do the same.

[3] = cited from earlier work
[4] = biological target: T2, α3β4 receptor agonist recognition sites (Rattus norvegicus, UniProt P04757+P12392); experiment: [3H]EB ligand binding in membrane homogenates from KXα3β4R2 cells
T2 construct: expressed in transfected cells
T2 sequence (P04757 26-499): as the sequence (P04757 26-499) above
T2 sequence (P12392 21-495): as the sequence (P12392 21-495) above
Excerpt: Bound and free ligands were separated by vacuum filtration through Whatman GF/C filters treated with 0.5% polyethylenimine. […] Specific binding was defined as the difference between total binding and nonspecific binding.

[5] = blocking nicotine-stimulated 86Rb+ efflux

## COc1ccc2c(c1)[C@]13CCCC[C@@H]1[C@H](C2)N(C)CC3 [Dextromethorphan]
Rat α3β4 nAChRs
  IC50: 8900 ± 1100 nM
[1]
  self-administration of morphine, methamphetamine, and nicotine: decrease

## C[C@]12N[C@H](Cc3ccccc31)c1ccccc12 [MK-801]
Rat α3β4 nAChRs
  IC50: 26600 ± 9600 nM
[2]
  block of glutamate stimulated catecholamine release: partial block

## CCC(=O)C(C[C@H](C)N(C)C)(c1ccccc1)c1ccccc1.Cl [(+)-Methadone, S-(+)-methadone hydrochloride]
Rat α3β4 nAChRs
  IC50: 2500 ± 200 nM
[2]
  block of glutamate stimulated catecholamine release: partial block

## CC[C@H](OC(C)=O)C(C[C@H](C)N(C)C)(c1ccccc1)c1ccccc1.Cl [LAAM, (−)-α-acetylmethadol hydrochloride]
Rat α3β4 nAChRs
  IC50: 2500 ± 400 nM
  type of receptor blockade: noncompetitive blockers

## CCC(=O)O[C@](Cc1ccccc1)(c1ccccc1)[C@H](C)CNC [Norpropoxyphene, (+)-α-N-norpropoxyphene maleate]
Rat α3β4 nAChRs
  IC50: 1800 ± 100 nM

## CCC1=N[C@@H](C)CC1(c1ccccc1)c1ccccc1 [(−)-EMDP, S-(−)-2-ethyl-5-methyl-3,3-diphenyl-1-pyrroline hydrochloride]
Rat α3β4 nAChRs
  IC50: 6300 ± 700 nM

## C/C=C1/N(C)C(C)CC1(c1ccccc1)c1ccccc1 (stereo not shown) [EDDP]
Rat α3β4 nAChRs; [5]
  potency relative to mecamylamine: twice as potent
  potency relative to methadone: about 5 times more potent
Rat α3β4 nAChRs
  IC50: ~400 nM
Swiss-Webster mice
  tail withdrawal latency: increased
[3]; following administration of methadone
  peak plasma concentration: ~0.2 µM

## CCC(=O)O[C@](Cc1ccccc1)(c1ccccc1)[C@H](C)CN(C)C [Propoxyphene, (+)-α-propoxyphene hydrochloride]
Rat α3β4 nAChRs
  IC50: 2700 ± 400 nM

## CN1CCCC1c1cccnc1 (stereo not shown) [nicotine]
Rat α3β4 nAChRs
  stimulation of 86Rb+ efflux over basal levels: approximately 10 fold

## CCC1=[N+](C)[C@@H](C)CC1(c1ccccc1)c1ccccc1 [(−)-EDDP, S-(−)-2-ethyl-1,5-dimethyl-3,3-diphenylpyrrolinium perchlorate]
Rat α3β4 nAChRs
  IC50: 400 ± 100 nM

## R-(+)-2-ethyl-1,5-dimethyl-3,3-diphenylpyrrolinium perchlorate [(+)-EDDP]
Rat α3β4 nAChRs
  IC50: 400 ± 200 nM
  type of receptor blockade: noncompetitive blockers
[2]; until 100 μM
  effect on glutamate stimulated catecholamine release: no effect

## CCC1=N[C@H](C)CC1(c1ccccc1)c1ccccc1 [(+)-EMDP, R-(+)-2-ethyl-5-methyl-3,3-diphenyl-1-pyrroline hydrochloride]
Rat α3β4 nAChRs
  IC50: 5800 ± 1000 nM

## CCC(=O)C(CC(C)N(C)C)(c1ccccc1)c1ccccc1 (racemic) [methadone, (O)-Methadone hydrochloride]
Rat α3β4 nAChRs; 100 μM nicotine plus 200 μM methadone
  block of nicotine-stimulated 86Rb+ efflux: completely blocked
Rat α3β4 nAChRs
  IC50: ~2000 nM
  type of receptor blockade: noncompetitive mechanism
Rat α3β4 nAChRs; methadone alone at concentrations up to 1 mM
  increase of 86Rb+ efflux (agonist effect): did not increase
[4]
  competition for [3H]EB binding sites (in words): does not compete effectively
[3]; patients taking methadone chronically
  steady-state plasma concentration: exceed 1 μM
[3]; single dose of methadone
  plasma concentration following a single dose: approximately 0.25 μM

## CCC(=O)C(C[C@@H](C)N(C)C)(c1ccccc1)c1ccccc1 [(−)-Methadone, R-(−)-methadone hydrochloride]
Rat α3β4 nAChRs; hydrochloride
  IC50: 1900 nM and 2000 nM

## CN1CC[C@@]23CCCC[C@@H]2[C@@H]1Cc1ccc(O)cc13 [Dextrorphan]
Rat α3β4 nAChRs
  IC50: 29600 ± 5700 nM
